Seven compounds from US8377884B2, “Variants of C-type natriuretic peptides” (Biomarin Pharmaceutical Inc., priority 2007, dated 2013) can be followed below.

Data set [1] has as its target neutral endopeptidase (NEP) (Homo sapiens, UniProt P08473). Put plainly: in vitro. Conditions: human, pH 7. The method, then: To determine the effects of amino acid substitutions, amino acid extensions, backbone modifications, side chain modifications and PEGylation on the susceptibility of CNP variants to neutral endopeptidase (NEP) cleavage, peptide cleavage assays were carried out using an in vitro assay that monitored disappearance of the non-cleaved CNP variant.
Recombinant human NEP (1 ug/mL final concentration) was added to 100 uM CNP variant diluted in 0.1 M Tris, pH 7. The reaction mixture was incubated at 37° C. for various periods of time, and the reaction was quenched with EDTA (10 mM final) followed by heat denaturation. The reaction mixture was reduced and then the reaction products were analyzed using HPLC and mass spectroscopy. The half-life of the CNP variant was calculated based on the disappearance of intact CNP variant over time.

In another data set the target is T1, NPR-B (Mus musculus, UniProt Q6VVW5).
T1 construct: Murine NIH3T3 cells express endogenously the CNP signaling receptor, NPR-B; endogenous in cells; host or cells: NIH3T3 (murine fibroblasts)
T1 sequence (Q6VVW5 17-1047): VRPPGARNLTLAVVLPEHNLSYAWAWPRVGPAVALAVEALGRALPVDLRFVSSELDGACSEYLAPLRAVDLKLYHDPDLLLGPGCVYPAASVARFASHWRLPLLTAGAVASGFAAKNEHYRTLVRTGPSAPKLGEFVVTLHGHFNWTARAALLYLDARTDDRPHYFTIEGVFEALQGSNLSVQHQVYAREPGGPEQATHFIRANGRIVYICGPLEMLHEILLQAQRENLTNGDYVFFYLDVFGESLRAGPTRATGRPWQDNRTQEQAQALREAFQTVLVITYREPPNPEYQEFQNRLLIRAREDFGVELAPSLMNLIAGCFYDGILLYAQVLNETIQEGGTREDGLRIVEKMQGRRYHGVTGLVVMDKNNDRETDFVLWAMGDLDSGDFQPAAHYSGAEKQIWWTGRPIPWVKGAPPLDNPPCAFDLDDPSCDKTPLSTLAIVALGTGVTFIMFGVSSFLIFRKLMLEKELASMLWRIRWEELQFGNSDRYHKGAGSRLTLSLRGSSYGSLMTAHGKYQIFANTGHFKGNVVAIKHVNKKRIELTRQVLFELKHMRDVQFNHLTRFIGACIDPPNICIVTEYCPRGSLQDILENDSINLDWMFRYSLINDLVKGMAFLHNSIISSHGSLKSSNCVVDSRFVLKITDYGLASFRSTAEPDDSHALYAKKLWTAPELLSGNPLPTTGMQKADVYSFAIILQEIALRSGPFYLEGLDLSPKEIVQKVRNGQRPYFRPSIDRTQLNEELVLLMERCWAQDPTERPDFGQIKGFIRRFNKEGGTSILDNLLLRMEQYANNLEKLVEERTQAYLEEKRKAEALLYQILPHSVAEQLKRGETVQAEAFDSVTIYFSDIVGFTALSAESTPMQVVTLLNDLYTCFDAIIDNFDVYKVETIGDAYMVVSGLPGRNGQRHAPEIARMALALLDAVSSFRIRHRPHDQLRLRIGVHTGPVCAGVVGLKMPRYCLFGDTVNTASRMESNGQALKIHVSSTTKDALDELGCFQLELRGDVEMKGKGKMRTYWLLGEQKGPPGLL
Put plainly: Stimulation of cGMP production in NIH3T3 cells. It is filed as cell-based, Murine. Particulars: for cGMP response relative to 1 uM CNP22 (%) at 0.01 µM: read-out: cGMP Response rel. to 1 uM CNP22, 10 nM; for cGMP response relative to 1 uM CNP22 (%) at 1 µM: read-out: cGMP Response rel. to 1 uM CNP22, 1 uM.

Setting [2] is: NIH3T3 cells, 10 nM natriuretic peptide, normalized to cell number and cGMP production with 1 uM wtCNP22.
Where [3] appears, read: NIH3T3 cells, 1 uM natriuretic peptide, normalized to cell number and cGMP production with 1 uM wtCNP22.
Where [4] appears, read: recombinant human neutral endopeptidase (NEP).

Like-named read-outs stand apart in the source and are kept apart here. Bridge positions count the residues as written; N and C are the ends. Peptide text beside a SMILES is read from it. * marks the point of attachment. PEG12 = NCCOCCOCCOCCOCCOCCOCCOCCOCCOCCOCCOCCOCCC(=O)O; Biotin = O=C1N[C@H]2[C@H](CS[C@H]2CCCCC(=O)*)N1

Chain of neutral endopeptidase (NEP) (P08473 whole entry): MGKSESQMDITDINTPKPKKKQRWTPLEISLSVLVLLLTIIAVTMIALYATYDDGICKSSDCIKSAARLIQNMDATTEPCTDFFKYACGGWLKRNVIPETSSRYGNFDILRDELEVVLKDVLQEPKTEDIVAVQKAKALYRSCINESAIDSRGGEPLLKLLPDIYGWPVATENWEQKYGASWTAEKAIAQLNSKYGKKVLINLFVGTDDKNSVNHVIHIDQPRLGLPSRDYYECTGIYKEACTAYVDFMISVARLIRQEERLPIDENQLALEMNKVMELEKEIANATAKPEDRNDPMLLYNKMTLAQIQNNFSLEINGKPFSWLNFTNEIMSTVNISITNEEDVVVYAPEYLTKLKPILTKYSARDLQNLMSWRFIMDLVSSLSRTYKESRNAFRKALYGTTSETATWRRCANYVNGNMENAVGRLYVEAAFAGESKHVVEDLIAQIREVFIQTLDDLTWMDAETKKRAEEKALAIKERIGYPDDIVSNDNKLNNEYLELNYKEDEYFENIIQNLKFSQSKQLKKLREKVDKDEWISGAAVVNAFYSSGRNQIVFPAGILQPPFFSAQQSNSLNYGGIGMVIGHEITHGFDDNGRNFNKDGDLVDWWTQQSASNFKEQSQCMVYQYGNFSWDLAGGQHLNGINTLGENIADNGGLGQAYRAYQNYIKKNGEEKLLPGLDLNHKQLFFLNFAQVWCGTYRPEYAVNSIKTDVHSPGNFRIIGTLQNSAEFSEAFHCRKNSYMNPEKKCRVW

Usually half-life stands for how long it takes for the measured level to halve. As to `CC[C@H](C)[C@@H]1NC(=O)[C@H](CCCNC(=N)N)NC(=O)[C@H](CC(=O)O)NC(=O)[C@H](CC(C)C)NC(=O)[C@H](CCCCN)NC(=O)[C@H](CC(C)C)NC(=O)CNC(=O)[C@H](Cc2ccccc2)NC(=O)[C@@H](NC(=O)CNC(=O)[C@H](CCCCN)NC(=O)[C@H](CO)NC(=O)[C@H](CC(C)C)NC(=O)CNC(=O)[C@H](CCCCN)NC(=O)[C@H](CCCCN)NC(=O)[C@H](CC(N)=O)NC(=O)[C@H](C)NC(=O)CNC(=O)[C@H](CCCCN)NC(=O)[C@H](Cc2ccc(O)cc2)NC(=O)[C@H](CCCCN)NC(=O)[C@H](CCCNC(=N)N)NC(=O)[C@H](C)NC(=O)[C@H](CC(N)=O)NC(=O)[C@@H]2CCCN2C(=O)[C@H](Cc2c[nH]cn2)NC(=O)[C@H](CCC(=O)O)NC(=O)[C@@H](N)CCC(N)=O)CSSC[C@@H](C(=O)O)NC(=O)CNC(=O)[C@H](CC(C)C)NC(=O)CNC(=O)[C@H](CO)NC(=O)[C@H](CCSC)NC(=O)[C@H](CO)NC(=O)CNC1=O` [BL], the half-life at 100 uM in data set [1] was > 2.67 h. At NPR-B (setting [2]), the “cGMP Response rel. to 1 uM CNP22, 10 nM” value is recorded as 43 ± 15. For the same compound, the “cGMP Response rel. to 1 uM CNP22, 1 uM” value at NPR-B (setting [3]) amounted to 97 ± 27.
`CC[C@H](C)[C@@H]1NC(=O)[C@H](CCCNC(=N)N)NC(=O)[C@H](CC(=O)O)NC(=O)[C@H](CC(C)C)NC(=O)[C@H](CCCCN)NC(=O)[C@H](CC(C)C)NC(=O)CNC(=O)[C@H](Cc2ccccc2)NC(=O)[C@@H](NC(=O)CNC(=O)[C@H](CCCCN)NC(=O)[C@H](CO)NC(=O)[C@H](CC(C)C)NC(=O)CNC(=O)[C@H](CCCNC(=N)N)NC(=O)[C@H](C)NC(=O)[C@H](Cc2c[nH]c3ccccc23)NC(=O)[C@H](C)NC(=O)[C@H](C)NC(=O)[C@H](CCCNC(=N)N)NC(=O)[C@H](CO)NC(=O)[C@H](CCCCN)NC(=O)[C@@H](NC(=O)[C@H](CC(=O)O)NC(=O)[C@@H](NC(=O)[C@H](CCCNC(=N)N)NC(=O)[C@H](CC(C)C)NC(=O)[C@@H](N)CC(=O)O)C(C)C)[C@@H](C)O)CSSC[C@@H](C(=O)O)NC(=O)CNC(=O)[C@H](CC(C)C)NC(=O)CNC(=O)[C@H](CO)NC(=O)[C@H](CCSC)NC(=O)[C@H](CO)NC(=O)CNC1=O` [CC] (H-DLRVDTKSRAAWARGLSKGCFGLKLDRIGSMSGLGC-OH; disulfide 20-36 (inferred); N-terminus and C-terminus assumed): in data set [1], the half-life at 100 uM is > 2.67 h. Also, on NPR-B (setting [2]), the cGMP response relative to 1 uM CNP22 (%) at 0.01 µM amounted to 34%. In addition, the cGMP response relative to 1 uM CNP22 (%) at 1 µM at NPR-B (setting [3]) worked out at 101%.
On to `CC[C@H](C)[C@@H]1NC(=O)[C@H](CCCNC(=N)N)NC(=O)[C@H](CC(=O)O)NC(=O)[C@H](CC(C)C)NC(=O)[C@H](CCCCN)NC(=O)[C@H](CC(C)C)NC(=O)CNC(=O)[C@H](Cc2ccccc2)NC(=O)[C@@H](NC(=O)CNC(=O)[C@H](CCCNC(=N)N)NC(=O)[C@H](CO)NC(=O)[C@H](CC(C)C)NC(=O)CN)CSSC[C@@H](C(=O)O)NC(=O)CNC(=O)[C@H](CC(C)C)NC(=O)CNC(=O)[C@H](CO)NC(=O)[C@H](CCSC)NC(=O)[C@H](CO)NC(=O)CNC1=O` [AH] (H-GLSRGCFGLKLDRIGSMSGLGC-OH; disulfide 6-22 (inferred); N-terminus and C-terminus assumed), for which the half-life at 100 uM in data set [1] (setting [4]) was 1.33 h. On NPR-B (setting [2]), the cGMP response relative to 1 uM CNP22 (%) at 0.01 µM is 59%. In addition, the cGMP response relative to 1 uM CNP22 (%) at 1 µM on NPR-B (setting [3]) stood at 121%.
On the same counts, the results for `CC[C@H](C)[C@@H]1NC(=O)[C@H](CCCNC(=N)N)NC(=O)[C@H](CC(=O)O)NC(=O)[C@H](CC(C)C)NC(=O)[C@H](CCCCN)NC(=O)[C@H](CC(C)C)NC(=O)CNC(=O)[C@H](Cc2ccccc2)NC(=O)[C@@H](NC(=O)CNC(=O)[C@H](CCC(=O)O)NC(=O)[C@H](CO)NC(=O)[C@H](CC(C)C)NC(=O)[C@@H](N)CCC(=O)O)CSSC[C@@H](C(=O)O)NC(=O)CNC(=O)[C@H](CC(C)C)NC(=O)CNC(=O)[C@H](CO)NC(=O)[C@H](CCSC)NC(=O)[C@H](CO)NC(=O)CNC1=O` [AT] (H-ELSEGCFGLKLDRIGSMSGLGC-OH; disulfide 6-22 (inferred); N-terminus and C-terminus assumed) are 1 h, 11% and 54%.
Turning to `CC[C@H](C)[C@@H]1NC(=O)[C@H](CCCNC(=N)N)NC(=O)[C@H](CC(=O)O)NC(=O)[C@H](CC(C)C)NC(=O)[C@H](CCCCN)NC(=O)[C@H](CC(C)C)NC(=O)CNC(=O)[C@H](Cc2ccccc2)NC(=O)[C@@H](NC(=O)CNC(=O)CNC(=O)[C@H](CO)NC(=O)[C@H](CC(C)C)NC(=O)CNC(=O)CCOCCOCCOCCOCCOCCOCCOCCOCCOCCOCCOCCOCCNC(=O)CCCC[C@@H]2SC[C@@H]3NC(=O)N[C@@H]32)CSSC[C@@H](C(=O)O)NC(=O)CNC(=O)[C@H](CC(C)C)NC(=O)CNC(=O)[C@H](CO)NC(=O)[C@H](CCSC)NC(=O)[C@H](CO)NC(=O)CNC1=O` [(PEO12)-Biotin-CNP22, K4G] ({Biotin-PEG12}-GLSGGCFGLKLDRIGSMSGLGC-OH; disulfide 6-22; C-terminus assumed), the half-life at 100 uM in data set [1] was 1.67 h. For the same compound, at NPR-B (NIH3T3, […]), the cGMP response relative to 1 uM CNP22 (%) at 0.01 µM was found to be 10% and the cGMP response relative to 1 uM CNP22 (%) at 1 µM turned out to be 27%.
Turning to `CC[C@H](C)[C@@H]1NC(=O)[C@H](CCCNC(=N)N)NC(=O)[C@H](CC(=O)O)NC(=O)[C@H](CC(C)C)NC(=O)[C@H](CCCCN)NC(=O)[C@H](CC(C)C)NC(=O)[C@H]([C@@H](C)O)NC(=O)[C@H](Cc2ccccc2)NC(=O)[C@@H](NC(=O)CNC(=O)[C@H](CCCNC(=N)N)NC(=O)[C@H](CO)NC(=O)[C@H](CC(C)C)NC(=O)CN)CSSC[C@@H](C(=O)O)NC(=O)CNC(=O)[C@H](CC(C)C)NC(=O)CNC(=O)[C@H](CO)NC(=O)[C@H](CCSC)NC(=O)[C@H](CO)NC(=O)CNC1=O` [AC] (H-GLSRGCFTLKLDRIGSMSGLGC-OH; disulfide 6-22 (inferred); N-terminus and C-terminus assumed), in data set [1] (setting [4]), the half-life at 100 uM was 1.33 h. The cGMP response relative to 1 uM CNP22 (%) at 0.01 µM on NPR-B (setting [2]) was determined as 11 ± 2%. Besides, the cGMP response relative to 1 uM CNP22 (%) at 1 µM at NPR-B (setting [3]) is 66 ± 16%.
The compound `CC[C@H](C)[C@@H]1NC(=O)[C@H](CCCNC(=N)N)NC(=O)[C@H](CC(=O)O)NC(=O)[C@H](CC(C)C)NC(=O)[C@H](CCCCN)NC(=O)[C@H](CC(C)C)NC(=O)CNC(=O)[C@H](Cc2ccccc2)NC(=O)[C@@H](NC(=O)CNC(=O)[C@H](CCCNC(=N)N)NC(=O)[C@H](CO)NC(=O)[C@H](CC(C)C)NC(=O)CNC(=O)[C@H](CCCNC(=N)N)NC(=O)[C@@H](N)CCC(=O)O)CSSC[C@@H](C(=O)O)NC(=O)CNC(=O)[C@H](CC(C)C)NC(=O)CNC(=O)[C@H](CO)NC(=O)[C@H](CCSC)NC(=O)[C@H](CO)NC(=O)CNC1=O` [BA] (H-ERGLSRGCFGLKLDRIGSMSGLGC-OH; disulfide 8-24 (inferred); N-terminus and C-terminus assumed) had a half-life at 100 uM in data set [1] of 1.5 h. The cGMP response relative to 1 uM CNP22 (%) at 0.01 µM on NPR-B (setting [2]) turned out to be 38 ± 10%. For the same compound, the cGMP response relative to 1 uM CNP22 (%) at 1 µM on NPR-B (setting [3]) was determined as 113 ± 10%.
